Results on 22 molecules are retold here after patent US9546151B2, “VMAT inhibitory compounds” (Oregon Health & Science University, priority 2014, dated 2017).

For data set [1], the target named is T1, VMAT2 (Homo sapiens, UniProt Q05940). Kind of data set: hVMAT2 5HT Uptake. In kind it is biochemical. The arrangement: expressed in transfected cells; host or cells: HEK (human embryonic kidney) cells. As to conditions: [^3H]5HT uptake, HEK-hVMAT2 preparation; read-out: hVMAT2 5HT Uptake IC50 (nM) ± SEM. Here is the method: (§1) Membrane preparation for binding, uptake and release assays using HEK-hVMAT2 cells: Human embryonic kidney cells expressing the human vesicular monoamine transporter 2 (HEK-hVMAT2) were used. HEK-hVMAT2 cells were grown until confluent. The media was removed from plates, solution A [sucrose (0.32 M) with protease inhibitors] was added to the plate, and cells were scraped from plate. Cells were homogenized with 12 strokes of a glass/glass homogenizer. The homogenate was centrifuged at 800×g for 10 min. The supernatant was removed and saved, and the pellet was resuspended, homogenized and centrifuged as above. The supernatants were combined and centrifuged at 10,000×g for 20 min. The pellet was resuspended in solution A (0.75 ml). The membranes were osmotically shocked by addition of 2.625 ml ice cold water and homogenized by 5 strokes of a glass/Teflon homogenizer. The osmolarity was reestablished with addition of Tris (338 μl, 0.25M, pH 7.4 at 4° C.), sodium potassium tartrate (338 μl, 1.0 M), and MgSO4 (4 μl, 0.9M). The homogenate was centrifuged at 20,000×g for 20 min.
T1 sequence (Q05940 whole entry): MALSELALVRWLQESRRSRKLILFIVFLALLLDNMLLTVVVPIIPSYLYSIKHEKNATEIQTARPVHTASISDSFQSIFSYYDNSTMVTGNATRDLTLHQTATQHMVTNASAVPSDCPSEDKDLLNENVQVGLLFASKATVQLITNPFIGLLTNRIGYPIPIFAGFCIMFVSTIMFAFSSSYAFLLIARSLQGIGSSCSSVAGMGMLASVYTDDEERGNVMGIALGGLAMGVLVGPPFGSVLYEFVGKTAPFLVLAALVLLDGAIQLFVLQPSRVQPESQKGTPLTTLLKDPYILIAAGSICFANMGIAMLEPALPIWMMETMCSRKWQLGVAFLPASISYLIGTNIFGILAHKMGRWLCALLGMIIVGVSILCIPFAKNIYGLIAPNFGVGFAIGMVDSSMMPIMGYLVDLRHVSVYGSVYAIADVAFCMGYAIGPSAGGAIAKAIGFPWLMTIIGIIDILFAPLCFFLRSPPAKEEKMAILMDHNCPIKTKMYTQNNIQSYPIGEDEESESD

The target in data set [2] is T1, VMAT2. Kind of data set: hVMAT2 [3H]DTBZ ([3H]DHTB) binding assay. The conditions noted are these: cells printed in μM under a head in nM; HEK-hVMAT2 membranes. Details: expressed in transfected cells; host or cells: HEK (human embryonic kidney) cells. Here is the method:
as §1
Binding was terminated by filtration over Whatman GF/C filters using a Tomtec 96-well cell harvester. Filters were washed for six seconds with ice-cold saline. Scintillation fluid was added to each square and radioactivity remaining on the filters was determined using a Wallac μ- or beta-plate reader. Specific binding was defined as the difference in binding observed in the presence and absence of Ro4-1284 (10 μM, generously supplied by Hoffman LaRoche). Three or more independent competition experiments were conducted with duplicate determinations.

Broadly, the melting point is the temperature, or range, at which the solid turns liquid. A word on the IC50: it is the midpoint of a concentration-inhibition curve. In general, Ki refers to a dissociation constant, usually derived from enzyme kinetics or from competition with a known ligand. Low readings indicate tighter binding, high ones weaker binding.

Where a name gives a salt, the structure may show the parent alone.

For the molecule `CCOC(=O)[C@H]1CN(CCn2c(=O)[nH]c3ccccc3c2=O)CC[C@H]1c1ccc(O)c(O)c1` (racemic) (as salt: HCl) [Compound 5ff, (±)-syn-Ethyl 4-(3,4-dihydroxyphenyl)-1-(2-(2,4-dioxo-1,2-dihydroquinazolin-3(4H)-yl)ethyl)piperidine-3-carboxylate], the melting point was 167 to 168.5 °C.
On the same count and under the same terms, as for `CCOC(=O)[C@H]1CN(CCn2c(=O)[nH]c3ccccc3c2=O)CC[C@H]1c1ccc2c(c1)OCCO2` (racemic) (as salt: HCl) [Compound 5gg, (±)-syn-Ethyl 4-(2,3-dihydrobenzo[b][1,4]dioxin-6-yl)-1-(2-(2,4-dioxo-1,2-dihydroquinazolin-3(4H)-yl)ethyl)piperidine-3-carboxylate], the figure is 178 to 179 °C; as for `CCOC(=O)[C@H]1CN(CCn2c(=O)[nH]c3ccccc3c2=O)CC[C@H]1c1ccc(OC(F)(F)F)cc1` (racemic) (as salt: HCl) [Compound 5ii, (±)-syn-ethyl 1-(2-(2,4-dioxo-1,2-dihydroquinazolin-3(4H)-yl)ethyl)-4-(4-(trifluoromethoxy)phenyl)piperidine-3-carboxylate], 150 to 151.5 °C; as for `CCOC(=O)[C@H]1CN(CCn2c(=O)[nH]c3ccccc3c2=O)CC[C@H]1c1cccc(OC(F)(F)F)c1` (racemic) (as salt: HCl) [Compound 5jj, (±)-syn-Ethyl 1-(2-(2,4-dioxo-1,2-dihydroquinazolin-3(4H)-yl)ethyl)-4-(3-(trifluoromethoxy)phenyl)piperidine-3-carboxylate], 155 to 156 °C.
On the same count and under the same terms, then `CCOC(=O)[C@H]1CN(CCn2c(=O)[nH]c3ccccc3c2=O)CC[C@H]1c1ccc(OC)cc1` (racemic) (as salt: HCl) [Compound 5r, (±)-syn-Ethyl 1-(2-(2,4-dioxo-1,2-dihydroquinazolin-3(4H),-yl)ethyl)-4-(4-methoxyphenyl) piperidine-3-carboxylate], with 153 to 154 °C; and `CCOC(=O)[C@H]1CN(CCn2c(=O)[nH]c3ccccc3c2=O)CC[C@H]1c1ccc(CC)cc1` (racemic) (as salt: HCl) [Compound 5t, (±)-syn-Ethyl 1-(2-(2,4-dioxo-1,2-dihydroquinazolin-3(4H),-yl)ethyl)-4-(4-ethylphenyl) piperidine-3-carboxylate], with 145 to 146 °C.
On the same count and under the same terms, as for `CCOC(=O)[C@H]1CN(CCn2c(=O)[nH]c3ccccc3c2=O)CC[C@H]1c1ccc(C(C)C)cc1` (racemic) (as salt: HCl) [Compound 5u, (±)-syn-Ethyl 1-(2-(2,4-dioxo-1,2-dihydroquinazolin-3(4H),-yl)ethyl)-4-(4-isopropylphenyl) piperidine-3-carboxylate], the figure is 153 to 154 °C.
Molecule `CCOC(=O)[C@H]1CN(CCn2c(=O)[nH]c3ccccc3c2=O)CC[C@H]1CCc1ccccc1` (racemic) (as salt: HCl) [Compound 5v, (±)-syn-Ethyl 1-(2-(2,4-dioxo-1,2-dihydroquinazolin-3(4H)-yl)ethyl)-4-phenethylpiperidine-3-carboxylate] displayed a melting point of 140 to 141 °C.
Same read-out and setting: as for `CCOC(=O)[C@H]1CN(CCn2c(=O)[nH]c3ccccc3c2=O)CC[C@H]1c1cccc(C)c1` (racemic) (as salt: HCl) [Compound 5y, (±)-syn-Ethyl 1-(2-(2,4-dioxo-1,2-dihydroquinazolin-3(4H),-yl)ethyl)-4-(m-tolyl)piperidine-3-carboxylate], the figure is 148.5 to 150 °C; as for `CCOC(=O)[C@H]1CN(CCn2c(=O)[nH]c3ccccc3c2=O)CC[C@H]1c1ccccc1C` (racemic) (as salt: HCl) [Compound 5z, (±)-syn-Ethyl 1-(2-(2,4-dioxo-1,2-dihydroquinazolin-3(4H),-yl)ethyl)-4-(o-tolyl)piperidine-3-carboxylate], 174 to 175 °C; as for `COC(=O)[C@H]1CN(CCn2c(=O)[nH]c3ccccc3c2=O)CC[C@H]1c1ccc(F)cc1` (racemic) (as salt: HCl) [Compound 10a, (±)-syn-Methyl 1-(2-(2,4-dioxo-1,2-dihydroquinazolin-3(4H),-yl)ethyl)-4-(4-fluorophenyl) piperidine-3-carboxylate], 191.5 to 193 °C.
The molecule `CC(C)OC(=O)[C@H]1CN(CCn2c(=O)[nH]c3ccccc3c2=O)CC[C@H]1c1ccc(F)cc1` (racemic) (as salt: HCl) [Compound 10b, (±)-syn-Isopropyl 1-(2-(2,4-dioxo-1,2-dihydroquinazolin-3(4H),-yl)ethyl)-4-(4-fluorophenyl)piperidine-3-carboxylate] displayed a melting point of 157.5 to 159 °C.
Same read-out and setting: as for `CCOC(=O)[C@H]1CN(CCN2C(=O)c3ccccc3C2=O)CC[C@H]1c1ccc(F)cc1` (racemic) (as salt: HCl) [Example 144, (±)-syn-Ethyl 1-(2-(1,3-dioxoisoindolin-2-yl)ethyl)-4-(4-fluorophenyl)piperidine-3-carboxylate], the figure is 104.5 to 105.5 °C.
`CCOC(=O)[C@@H]1CN(CCn2c(=O)[nH]c3ccccc3c2=O)CC[C@@H]1c1cccc(F)c1` (racemic) [Compound 5e] showed a melting point of 170.6 to 171.4 °C. Further, the IC50 in data set [1] is 63 ± 10 nM. This molecule also displayed a Ki in data set [2] above 10 µM.
In the same order, the values of `CCOC(=O)[C@@H]1CN(CCn2c(=O)[nH]c3ccccc3c2=O)CC[C@@H]1c1ccc(Cl)cc1` (racemic) [Compound 5oo, (±) syn-ethyl 4-(4-chlorophenyl)-1-(2-(2,4-dioxo-1,2-dihydroquinazolin-3(4H)-yl)ethyl)piperidine-3-carboxylate] are 194.8 to 196.1 °C, 49 ± 1 nM and above 10 µM.
The like results for `CCOC(=O)[C@@H]1CN(CCn2c(=O)[nH]c3ccccc3c2=O)CC[C@@H]1c1cccc(Cl)c1` (racemic) [Compound 5pp, (±) syn-ethyl 4-(3-chlorophenyl)-1-(2-(2,4-dioxo-1,2-dihydroquinazolin-3(4H)-yl)ethyl)piperidine-3-carboxylate] were, in that order, 161.8 to 162.9 °C, 34 ± 8 nM and above 9 µM.
In the same order, the values of `CCOC(=O)[C@@H]1CN(CCn2c(=O)[nH]c3ccccc3c2=O)CC[C@@H]1c1ccc(F)c(F)c1` (racemic) [Compound 5ss, (±)-syn-Ethyl 4-(3,4-difluorophenyl)-1-(2-(2,4-dioxo-1,2-dihydroquinazolin-3(4H)-yl)ethyl)piperidine-3-carboxylate] are 196.6 to 198.4 °C, 100 ± 19 nM and above 10 µM.
Regarding `CCOC(=O)[C@@H]1CN(CCn2c(=O)[nH]c3ccccc3c2=O)CC[C@@H]1c1ccc([N+](=O)[O-])cc1` (racemic) [Compound 5tt, (±)-syn-Ethyl 4-(4-nitrophenyl)-1-(2-(2,4-dioxo-1,2-dihydroquinazolin-3(4H)-yl)ethyl)piperidine-3-carboxylate], the melting point was in the range of 216 to 217.4 °C. Besides, the IC50 in data set [1] was 758 ± 165 nM. The molecule also displayed a Ki in data set [2] above 10 µM.
For the molecule `CCOC(=O)[C@H]1CN(CCn2c(=O)[nH]c3ccccc3c2=O)CC[C@H]1c1ccccc1F` (racemic) [Compound 5x, (±)-syn-Ethyl 1-(2-(2,4-dioxo-1,2-dihydroquinazolin-3(4H)-yl)ethyl)-4-(2-fluorophenyl)piperidine-3-carboxylate], the melting point fell in the range of 182.8 to 183.6 °C. In addition, in data set [1], the IC50 was 28 ± 12 nM. For the same molecule, the Ki in data set [2] was above 10 µM.
The molecule `CCOC(=O)[C@@H]1CN(CCn2c(=O)c3ccccc3n(C)c2=O)CC[C@@H]1c1ccc(F)cc1` (racemic) [Compound 6a, (±) syn-ethyl 4-(4-fluorophenyl)-1-(2-(1-methyl-2,4-dioxo-1,2-dihydroquinazolin-3(4H)-yl)ethyl)piperidine-3-carboxylate] gave a melting point of 131.1 to 133 °C.
The same measure, in the same setting: then `CCCn1c(=O)n(CCN2CC[C@H](c3ccc(F)cc3)[C@H](C(=O)OCC)C2)c(=O)c2ccccc21` (racemic) [Compound 6b, (±) syn-ethyl 1-(2-(2,4-dioxo-1-propyl-1,2-dihydroquinazolin-3(4H)-yl)ethyl)-4-(4-fluorophenyl)piperidine-3-carboxylate], with 96.8 to 97.7 °C; and `O=c1[nH]c2ccccc2c(=O)n1CCN1CCC(c2ccc(F)cc2)CC1` [Compound 16, 3-(2-(4-(4-fluorophenyl)piperidin-1-yl)ethyl)quinazoline-2,4(1H,3H)-dione], with 263 to 264 °C.
